Assay results from patent US20260248815A1, “NEUROACTIVE STEROID FORMULATIONS AND METHODS OF USE THEREOF” (Sage Therapeutics, LLC, priority 2023, published 2026).
Like-named read-outs stand apart in the source and are kept apart here.

Assay: Open-label single-dose PK study in participants with hepatic impairment and normal hepatic function
Assay type: in vivo, human
Details: GeoMean, single 1.2 mg oral dose softgel capsules; for Cmax / AUC(0-inf) / AUC(0-t) / Tmax / Vd/F: human, in vivo, po, 1.2 mg; for Vd/F: read-out: Vz/F
Method: In an open-label, parallel group study to evaluate the PK, safety, and tolerability of Compound I, a single 1.2 mg oral dose of softgel capsules was administered to participants with hepatic impairment and in participants with normal hepatic function. Part 1 of the study comprised participants with moderate hepatic impairment (as determined by the Child-Pugh classifications; Class B (7 to 9 points)) and participants with normal hepatic function assigned to Cohorts 1 and 2, respectively. After Cohort 1 had been completely enrolled, participants with normal hepatic function (Cohort 2) were matched to Cohort 1 participants with respect to sex, mean age (10 years) and mean body mass index (BMI; 20%).
On Day 1, participants in Cohorts 1 and 2 received a single oral dose of 1.2 mg Compound I softgel capsules in the morning. Serial blood samples for PK analysis were collected through 168 hours post dose.

[1] = Cohort 1: moderate hepatic impairment, N 8
[2] = Cohort 2: normal hepatic function, N 7
[3] = Cohort 2: normal hepatic function, N 8

CLz/F [1]: 5.5 L/h
tlast [1]: 53.9 h
CLz/F [2]: 4.71 L/h
tlast [3]: 64.3 h
Cmax (Cohort 1: moderate hepatic impairment (Child-Pugh Class B), N 8): 0.0122 µg/mL
AUC(0-inf) [1]: 0.218 µg·h/mL
AUC(0-t) [1]: 0.188 µg·h/mL
Tmax [1]: 3.69 h
Vd/F [1]: 153 L
AUC(0-inf) [2]: 0.255 µg·h/mL
AUC(0-t) [2]: 0.238 µg·h/mL
Vd/F [2]: 151 L
Cmax [3]: 0.0157 µg/mL
Tmax [3]: 3.99 h
Compound: C[C@H](CC[C@](C)(O)C(F)(F)F)[C@H]1CC[C@H]2[C@@H]3CC=C4C[C@@](C)(O)CC[C@]4(C)[C@H]3CC[C@]12C [Compound I]
